Entries after “also recorded” stand apart in the source; their conditions may differ. Where two headings read alike, the source gives them in different places. Where no end group is shown, it is not given here.
What was measured:
Asf1 1-156 = biological target: T1, Asf1 1-156 (Homo sapiens, UniProt Q9Y294); assay: Calorimetry (ITC) of the interaction of peptides with Asf1 1-156; format: binding; conditions: for affinity for Asf1 compared with peptide i5: optimized sequences of i5; for binding to Asf1 (in words): control peptide mutated on three key residues
T1 construct: made in house
Experimental: FIG. 1: ITC curves of the interaction Asf1 1-156 (30 μM in A, 10 μM in B and C) with peptide i1 (A), i4 (B) and i5 (C). The peptide concentration used for this experiment is 0.5 mM for i1, and 0.16 mM for i4 and i5.
Human Asf1a and b proteins and the conserved N-terminal domain (1-156) of each of the isoforms were cloned into the vector peTM30. The unlabeled and ^15N and ^13C/^15N labeled recombinant proteins were purified according to the protocol of Mousson et al. (2004, Journal of Biomolecular NMR, 29(3): 413-414). The peptides were either produced by chemical synthesis ([…]), or cloned after gene synthesis ([…]) in the vector Gateway pDest 17 (Invitrogen), then purified according to the protocol of Mousson et al. (2005, Proc. Natl. Sci. USA, 102(17): p. 5975-5980).
All calorimetry experiments were carried out in 50 mM Tris buffer pH 7.4 at 5° C., unless otherwise indicated. Peptides were introduced in the syringe at a concentration of […] and Asf1 was added to the cuvette at a concentration of 30 μM or 10 μM. Calorimetry tests were also conducted at 25° C. or in 50 mM Tris buffer, 150 mM NaCl, pH 7.4 to obtain more detailed information on the characteristics of the interactions studied.

U2OS cells [1] = assay: Cell penetration test of FITC-labelled peptides by flow cytometry; format: cell-based, human; conditions: FITC label, 1 μM, 1 hour, FIG. 5
Experimental: The capacity of the peptide i42V (SEQ ID NO: 47) coupled either to the sequence TAT (peptide TAT-i42V, SEQ ID NO: 58) or to the sequence (RRP)5 (peptide RRP5-i42V, SEQ ID NO 59) was measured using these peptides coupled to an FITC label. The mean fluorescence of the cells was analyzed by flow cytometry (FIG. 5).
U2OS cells were incubated with culture medium supplemented with fluorescent peptide at a final concentration of 1 μM for 1 hour, then washed with PBS buffer and detached by addition of trypsin, washed with PBS buffer, then analyzed by flow cytometry (FACS).

U2OS cells [2] = assay: Toxicity test on U2OS cells transduced with peptides in the presence of pyrene butyrate; format: cell-based, human; conditions: 24 hours after transduction
Experimental: To optimize the internalization of the peptide, the transduction was performed in the presence of pyrene butyrate, according to the method proposed by Takeuchi et al. (ACS CHEMICAL BIOLOGY, 2006. 1(5): p. 299-303). […] RRP5-i1 is the peptide of SEQ ID NO: 60. RRP5-i5 is the peptide of SEQ ID NO: 66. This correlation between the affinity of the peptide for Asf1 and the induced cell toxicity was confirmed for another cell type (HeLa cells) and by using another protocol to measure cell survival, the MTT assay (FIG. 10).
To test the phenotypes induced by the peptide, a newly developed protocol for the “Cell Penetrating TAT” was used. The peptides were dissolved in PBS buffer containing […] and incubated with U2OS (or HeLa) cells for 4 minutes. Cells were then washed three times with PBS buffer, then taken up in culture medium containing fetal calf serum. Cell death was analyzed by FACS 24 to 48 hours later by propidium iodide incorporation or by an MTT assay (3-(4,5-dimethylthiazol-2-yl)-2,5-diphenyl tetrazolium bromide). (Mosmann, T. J. Immunol. Methods 65: 55-63, 1983).

Asf1-H3-H4 interaction = biological target: T2, Asf1-H3-H4 interaction (Homo sapiens, UniProt Q9Y294); assay: Competition assay on GST column (peptide/histone competition in vitro, Western blot); format: binding; conditions: peptide 0.1 mM and 1 mM, FIG. 3
T2 construct: The human protein GST-Asf1 1-156 was produced; made in house
Experimental: To do this, GST beads linked to Asf1 were incubated with an excess of histones H3-H4, then washed and incubated with increasing concentrations of peptide. The eluted histones were analyzed by Western blot.
The human protein GST-Asf1 1-156 was produced and then incubated with GST beads (glutathione S transferase, Sigma). For each experiment, 40 μg of recombinant Asf1 fixed to agarose beads were incubated with 400 μg of histones. After washing with 50 mM Tris buffer, pH 8, 150 mM NaCl, 1 mM EDTA, 1 mM DTT, 0.5% NP40, the beads were incubated with different concentrations of peptide (0 to 1 mM) dissolved in the same buffer.

[3] = ITC, 50 mM Tris buffer pH 7.4 at 5° C., Asf1 1-156, read-out: Kd

T1 sequence (Q9Y294 1-156): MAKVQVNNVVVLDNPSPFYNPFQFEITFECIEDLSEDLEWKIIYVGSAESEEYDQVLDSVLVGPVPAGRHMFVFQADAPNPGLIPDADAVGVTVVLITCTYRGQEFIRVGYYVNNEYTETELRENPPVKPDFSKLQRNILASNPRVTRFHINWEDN
T2 sequence (Q9Y294 1-156): as above

Kd (Asf1 1-156; [3]) [nM]	Substance	also measured
30	GAMGLTAAEHAKRSTLTPKEAQLARRIRGAGGVTLNGFG [SEQ ID NO: 52]	–
60	GAMGRVPPAVRKLGNASTERKWAELARRIRGAGGVTLNGFG [SEQ ID NO: 65]	–
30	GAMGTRTPKERRLARRIRGAGGRTLNGFG [SEQ ID NO: 56]	–
420	RRPRRPRRPRRPRRPGAMGTITPKEAQLARRIRGAGGVTLNGFGCA [SEQ ID NO: 50]	–

The next lines start with the substance.

Substance	Kd (Asf1 1-156; [3]) [nM]	also measured
ASTERKWAELARRIAGAGGVTLNGFG [SEQ ID NO: 79]	–	affinity for Asf1 compared with peptide i5 (Asf1 1-156): at least as good as that of peptide i5
ASTERKWAELARRIRGAGGRTLNGFG [SEQ ID NO: 77]	–	affinity for Asf1 compared with peptide i5 (Asf1 1-156): at least as good as that of peptide i5
GAMGTIMPKDIQLARRIRG [SEQ ID NO: 70]	–	Kd (Asf1 1-156; unit inferred, read-out: affinity for Asf1): 8000 nM
GAMGTIMPKDIQLARRIRGAGASRTLYGFG [SEQ ID NO: 39]	350	–
GAMGTITPKEAQLARRIRGAGGVTLNGFG [SEQ ID NO: 47]	350	–
GAMGTITPKEEQLRRRIEGAGASVTLNGFG [SEQ ID NO: 46]	420	–
GAMGTLTPKEAELARRIRGAGASRTLNGFG [SEQ ID NO: 43]	350	–
GAMGTLTPKEAELARRIRGAGGRTLNGFG [SEQ ID NO: 42]	180	–
GAMGTLTPKEAELARRIRGAGGVTLNGFG [SEQ ID NO: 48]	60	–
GRKKRRQRRRGAMGTITPKEAQLARRIRGAGGVTLNGFG [SEQ ID NO: 58]	–	penetration into cells (mean fluorescence) (U2OS cells [1]): penetrate more effectively than the penetration sequences alone
RRP5-i5mut: mutated version of RRP5-i5 carrying the (RRP)5 sequence, does not bind to Asf1; negative control (RRPRRPRRPRRPRRPASTERKWAEAARRARGAGGVTLNGAGGCA)	–	toxicity (in words) (U2OS cells [2]): no toxicity was seen; binding to Asf1 (in words) (Asf1 1-156): does not bind to Asf1
RRPRRPRRPRRPRRPGAMGTITPKEAQLARRIRGAGGVTLNGFG [SEQ ID NO: 59]	–	penetration into cells (mean fluorescence) (U2OS cells [1]): penetrate more effectively than the penetration sequences alone
i5mut: control peptide, 90% identity with peptide i5, mutated to alanine on three key residues, no longer binds to Asf1 (ASTERKWAEAARRARGAGGVTLNGAG) [reference compound]	–	binding to Asf1 (in words) (Asf1 1-156): no longer binds to Asf1; also recorded: does not bind to Asf1; histones bound to or detached from GST-Asf1 beads (Asf1-H3-H4 interaction): the histones remain bound to Asf1

Source: US9526757B2, “Peptides that inhibit the interaction between ASF1 and histones, and use thereof” (COMMISSARIAT A L'ENERGIE ATOMIQUE ET AUX ENERGIES …, priority 2011, dated 2016)
